From patent publication US7022738B2, “α-ketoamide derivative and use thereof” (Senju Pharmaceutical Co., Ltd., priority 2002, dated 2006)

Columns and labels:
[1] = Permeability test with Caco-2 cells; assay type: in vitro ADME; details: human, Caco-2 monolayer, apical to basolateral, 30 and 60 minutes, read-out: apparent permeation coefficient (Papp)
Experimental: Permeability Test with Caco-2 Cells
0.5×10^6/cm^2 of Caco-2 cells (ATCC Catalog No. HTB-37, Manassas, Va., USA) were seeded into Transwell (polycarbonate filter: pore diameter 0.4 μm; culture area 0.33 cm^2; available from Costar Co.), and incubated in Dulbecco's modified Eagle's minimum essential medium (DMEM; available from Fisher Scientific International Inc.) for 21 to 30 days under the conditions of 37° C., 5% CO2 and 95% relative humidity, whereby a monolayer cell was prepared. The confluence of such a monolayer cell was evaluated by measuring trans epithelial electronic resistance (TEER). […] Based on the quantification results, apparent permeation coefficient (Papp) was calculated according to the formula: Papp=(δQ/δt)×(1/60AC0). • Papp: apparent permeation coefficient (cm/sec) • δQ/δt: permeation velocity (pmol/min) • A: area of monolayer cell=0.33 cm^2 • C0: initial concentration at apical membrane side (pmol/mL)

For `CCCCNC(=O)C(=O)[C@H](CC(C)C)NC(=O)[C@@H](NS(=O)(=O)c1ccc(F)cc1)C(C)C` [Compound 1, (3S)-N-Butyl-3-((2S)-2-(((4-fluorophenyl)sulfonyl)amino)-3-methylbutanoylamino)-5-methyl-2-oxohexanamide], the Papp A→B at 60 min, 10 μM [1] was 17 ×10⁻⁶ cm/s and the melting point was 107.6 to 109.9 °C.
